# Measured values as given in publication PMC11126801 (The Journal of Biological Chemistry, 2024).
# T1: HCN3 (Homo sapiens, UniProt Q9P1Z3)
# T1 sequence (Q9P1Z3 1-774): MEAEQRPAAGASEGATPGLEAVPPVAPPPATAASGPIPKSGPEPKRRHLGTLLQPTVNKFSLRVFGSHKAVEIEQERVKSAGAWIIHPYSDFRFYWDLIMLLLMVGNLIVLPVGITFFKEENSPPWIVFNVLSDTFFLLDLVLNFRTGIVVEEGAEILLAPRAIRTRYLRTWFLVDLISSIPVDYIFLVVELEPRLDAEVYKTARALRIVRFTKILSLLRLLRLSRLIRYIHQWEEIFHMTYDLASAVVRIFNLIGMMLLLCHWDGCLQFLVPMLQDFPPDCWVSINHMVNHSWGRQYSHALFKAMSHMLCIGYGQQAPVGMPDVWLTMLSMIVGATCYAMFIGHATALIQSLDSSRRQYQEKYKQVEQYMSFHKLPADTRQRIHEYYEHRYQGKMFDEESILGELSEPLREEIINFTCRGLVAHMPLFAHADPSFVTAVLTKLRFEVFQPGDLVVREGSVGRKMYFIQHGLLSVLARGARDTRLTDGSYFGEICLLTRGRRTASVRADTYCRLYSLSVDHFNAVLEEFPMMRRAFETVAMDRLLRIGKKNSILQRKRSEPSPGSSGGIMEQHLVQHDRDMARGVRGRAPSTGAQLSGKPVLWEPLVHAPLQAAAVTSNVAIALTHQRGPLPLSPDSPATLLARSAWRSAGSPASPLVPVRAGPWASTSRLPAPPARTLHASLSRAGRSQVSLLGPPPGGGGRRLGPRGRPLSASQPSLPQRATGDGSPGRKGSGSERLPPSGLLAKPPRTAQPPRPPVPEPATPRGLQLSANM
# Legend:
# [1] = biological target: T1, HCN3; experiment: whole-cell patch clamp of HCN3 currents in transfected HeLa cells; format: cell-based; design: human HCN3 (WT) expressed in HeLa cells
# [2] = biological target: T1, HCN3; experiment: cryo-EM structure of the apo channel ([…] Å) with CHS density; IC50 by whole-cell patch clamp; format: cell-based
# [3] = biological target: the molecule itself; experiment: cryo-EM structure; single-particle cryo-EM of MBP-HCN3 in 0.1% digitonin, 300 mM KCl, 2 mM DTT, 20 mM Tris pH 8.0; ligand-free sample and sample with 5 mM cAMP; final refinement in C4 symmetry
molecule,measurement,setting,value
CC(C)CCC[C@@H](C)[C@H]1CC[C@H]2[C@@H]3CC=C4C[C@@H](O)CC[C@]4(C)[C@H]3CC[C@]12C [cholesterol],IC50,[1],480 µM
CC(C)CCC[C@@H](C)[C@H]1CC[C@H]2[C@@H]3CC=C4C[C@@H](OC(=O)CCC(=O)O)CC[C@]4(C)[C@H]3CC[C@]12C [cholesteryl hemisuccinate],IC50,[2],1450 µM
"full-length wild-type human HCN3 with its N terminus fused to maltose-binding protein (MBP) (natural protein, UniProt Q9P1Z3 1-774, looked up, the tag was not cleaved for the structures; Modelled residues: 50-151, 156-191, 210-476, 484-543 (apo); also 477-483 with cAMP; also called HCN3 channel; apo-HCN3; source: HEK293S cells, BacMam transduction, purified (MBP beads, Superose 6 SEC, digitonin); not shown: MBP, N-terminal, kept) MEAEQRPAAGASEGATPGLEAVPPVAPPPATAASGPIPKSGPEPKRRHLGTLLQPTVNKFSLRVFGSHKAVEIEQERVKSAGAWIIHPYSDFRFYWDLIMLLLMVGNLIVLPVGITFFKEENSPPWIVFNVLSDTFFLLDLVLNFRTGIVVEEGAEILLAPRAIRTRYLRTWFLVDLISSIPVDYIFLVVELEPRLDAEVYKTARALRIVRFTKILSLLRLLRLSRLIRYIHQWEEIFHMTYDLASAVVRIFNLIGMMLLLCHWDGCLQFLVPMLQDFPPDCWVSINHMVNHSWGRQYSHALFKAMSHMLCIGYGQQAPVGMPDVWLTMLSMIVGATCYAMFIGHATALIQSLDSSRRQYQEKYKQVEQYMSFHKLPADTRQRIHEYYEHRYQGKMFDEESILGELSEPLREEIINFTCRGLVAHMPLFAHADPSFVTAVLTKLRFEVFQPGDLVVREGSVGRKMYFIQHGLLSVLARGARDTRLTDGSYFGEICLLTRGRRTASVRADTYCRLYSLSVDHFNAVLEEFPMMRRAFETVAMDRLLRIGKKNSILQRKRSEPSPGSSGGIMEQHLVQHDRDMARGVRGRAPSTGAQLSGKPVLWEPLVHAPLQAAAVTSNVAIALTHQRGPLPLSPDSPATLLARSAWRSAGSPASPLVPVRAGPWASTSRLPAPPARTLHASLSRAGRSQVSLLGPPPGGGGRRLGPRGRPLSASQPSLPQRATGDGSPGRKGSGSERLPPSGLLAKPPRTAQPPRPPVPEPATPRGLQLSANM",stoichiometry N,[3],4
